Results from the supplement of paper PMC12463676, “Small-molecule dissolution of stress granules by redox modulation benefits ALS models” (Nature Chemical Biology, 2025).

How the values were obtained:
lipoamide = compound: NC(=O)CCCCC1CCSS1 [lipoamide]; assay: thermal stability z-score vs DMSO; higher = more thermally stabilized by treatment; details: HeLa, lipoamide concentration 100 µM
Protocol: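 Cellular thermal proteome profiling in HeLa cells. Cells were treated with 100 µM lipoamide for 1 h, with or without 1 mM arsenate for a further 1 h, then heated to ten temperatures (37-66.3 °C), and soluble protein was quantified by TMT mass spectrometry relative to 0.1% DMSO controls. The thermal stability score (sum of log2 fold changes minus the abundance score) was transformed to a z-score; mean of n = 3 experiments.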

potassium arsenate = compound: O=[As]([O-])(O)O.[K+] [potassium arsenate]; assay: as above; details: HeLa; arsenate concentration 1 mM
Protocol: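 Cellular thermal proteome profiling in HeLa cells treated with 1 mM arsenate for 1 h (DMSO pretreatment), heated to ten temperatures (37-66.3 °C). Soluble protein was quantified by TMT mass spectrometry relative to DMSO controls; the thermal stability score was transformed to a z-score; mean of n = 3 experiments.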

[1] = arsenate co-treatment: 1 mM arsenate 1 h
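Note: each temperature applied for 3 min, abundance score taken as mean log2 fold change at the two lowest temperatures, z-score obtained by mean subtraction and division by SD.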

SUCLG1 (UniProt P53597)
thermal stability z-score (lipoamide; [1]): 0.0617 | thermal stability z-score (lipoamide; arsenate co-treatment: none): 0.192 | thermal stability z-score (potassium arsenate): 0.206

SUCLG2 (UniProt Q96I99)
thermal stability z-score (lipoamide; [1]): 0.0359 | thermal stability z-score (lipoamide; arsenate co-treatment: none): 0.172 | thermal stability z-score (potassium arsenate): 0.106

SUGP1 (UniProt Q8IWZ8)
thermal stability z-score (lipoamide; [1]): 0.164 | thermal stability z-score (lipoamide; arsenate co-treatment: none): -0.049 | thermal stability z-score (potassium arsenate): 0.928

SUGT1 (UniProt Q9Y2Z0)
thermal stability z-score (lipoamide; [1]): 0.611 | thermal stability z-score (lipoamide; arsenate co-treatment: none): 0.585 | thermal stability z-score (potassium arsenate): 0.388

SULT1A4|SULT1A3
thermal stability z-score (lipoamide; [1]): -0.787 | thermal stability z-score (lipoamide; arsenate co-treatment: none): 0.186 | thermal stability z-score (potassium arsenate): 1.16

SUMF1 (UniProt Q8NBK3)
thermal stability z-score (lipoamide; [1]): -1 | thermal stability z-score (lipoamide; arsenate co-treatment: none): -0.419 | thermal stability z-score (potassium arsenate): -0.194

SUMF2 (UniProt Q8NBJ7)
thermal stability z-score (lipoamide; [1]): -3.47 | thermal stability z-score (lipoamide; arsenate co-treatment: none): -2.99 | thermal stability z-score (potassium arsenate): 0.544

SUMO1 (UniProt P63165)
thermal stability z-score (lipoamide; [1]): -0.294 | thermal stability z-score (lipoamide; arsenate co-treatment: none): -0.0784 | thermal stability z-score (potassium arsenate): 1.09

SUMO2 (UniProt P61956)
thermal stability z-score (lipoamide; [1]): 1.1 | thermal stability z-score (lipoamide; arsenate co-treatment: none): 1.59 | thermal stability z-score (potassium arsenate): 0.306

SUN2 (UniProt Q9UH99)
thermal stability z-score (lipoamide; [1]): -1.43 | thermal stability z-score (lipoamide; arsenate co-treatment: none): -1.36 | thermal stability z-score (potassium arsenate): -0.0506

SUOX (UniProt P51687)
thermal stability z-score (lipoamide; [1]): -0.266 | thermal stability z-score (lipoamide; arsenate co-treatment: none): -0.279 | thermal stability z-score (potassium arsenate): 0.168

SUPT4H1 (UniProt P63272)
thermal stability z-score (lipoamide; [1]): -0.0276 | thermal stability z-score (lipoamide; arsenate co-treatment: none): -0.173 | thermal stability z-score (potassium arsenate): -0.164

SUPT5H (UniProt O00267)
thermal stability z-score (lipoamide; [1]): 0.685 | thermal stability z-score (lipoamide; arsenate co-treatment: none): -0.0241 | thermal stability z-score (potassium arsenate): -0.186

SUPT6H (UniProt Q7KZ85)
thermal stability z-score (lipoamide; [1]): 0.225 | thermal stability z-score (lipoamide; arsenate co-treatment: none): 0.758 | thermal stability z-score (potassium arsenate): -1

SUPT16H (UniProt Q9Y5B9)
thermal stability z-score (lipoamide; [1]): 1.01 | thermal stability z-score (lipoamide; arsenate co-treatment: none): 1.11 | thermal stability z-score (potassium arsenate): 0.819

SUPV3L1 (UniProt Q8IYB8)
thermal stability z-score (lipoamide; [1]): -0.171 | thermal stability z-score (lipoamide; arsenate co-treatment: none): -0.116 | thermal stability z-score (potassium arsenate): -0.478

SURF1 (UniProt Q15526)
thermal stability z-score (lipoamide; [1]): -1.27 | thermal stability z-score (lipoamide; arsenate co-treatment: none): -0.521 | thermal stability z-score (potassium arsenate): 0.165

SURF2 (UniProt Q15527)
thermal stability z-score (lipoamide; [1]): -0.0697 | thermal stability z-score (lipoamide; arsenate co-treatment: none): 0.247 | thermal stability z-score (potassium arsenate): -0.529

SURF4 (UniProt O15260)
thermal stability z-score (lipoamide; [1]): -0.416 | thermal stability z-score (lipoamide; arsenate co-treatment: none): -0.214 | thermal stability z-score (potassium arsenate): -0.243

SURF6 (UniProt O75683)
UniProt O75683, sequence (O75683 whole entry): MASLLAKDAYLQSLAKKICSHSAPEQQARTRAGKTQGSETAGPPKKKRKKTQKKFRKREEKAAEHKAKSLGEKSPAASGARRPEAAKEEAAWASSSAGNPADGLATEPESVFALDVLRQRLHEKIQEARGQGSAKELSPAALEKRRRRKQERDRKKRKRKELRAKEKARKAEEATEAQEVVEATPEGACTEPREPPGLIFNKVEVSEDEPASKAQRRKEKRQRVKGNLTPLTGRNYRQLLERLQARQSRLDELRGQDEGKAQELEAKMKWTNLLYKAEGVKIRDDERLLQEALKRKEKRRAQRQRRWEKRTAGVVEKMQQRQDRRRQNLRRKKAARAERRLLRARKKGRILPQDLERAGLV
thermal stability z-score (lipoamide; [1]): -0.283 | thermal stability z-score (lipoamide; arsenate co-treatment: none): -1.48 | thermal stability z-score (potassium arsenate): -2.85

SUZ12 (UniProt Q15022)
thermal stability z-score (lipoamide; [1]): -0.0278 | thermal stability z-score (lipoamide; arsenate co-treatment: none): -0.101 | thermal stability z-score (potassium arsenate): -0.186

SVIL (UniProt O95425)
thermal stability z-score (lipoamide; [1]): 0.00545 | thermal stability z-score (lipoamide; arsenate co-treatment: none): 0.00211 | thermal stability z-score (potassium arsenate): 0.279

SWAP70 (UniProt Q9UH65)
thermal stability z-score (lipoamide; [1]): -0.295 | thermal stability z-score (lipoamide; arsenate co-treatment: none): 0.217 | thermal stability z-score (potassium arsenate): 0.3

SYAP1 (UniProt Q96A49)
thermal stability z-score (lipoamide; [1]): 0.0475 | thermal stability z-score (lipoamide; arsenate co-treatment: none): -0.0361 | thermal stability z-score (potassium arsenate): 0.679

SYDE1 (UniProt Q6ZW31)
thermal stability z-score (lipoamide; [1]): -0.177 | thermal stability z-score (lipoamide; arsenate co-treatment: none): -0.208 | thermal stability z-score (potassium arsenate): -0.278

SYF2 (UniProt O95926)
thermal stability z-score (lipoamide; [1]): 1.83 | thermal stability z-score (lipoamide; arsenate co-treatment: none): 0.837 | thermal stability z-score (potassium arsenate): -0.951

SYMPK (UniProt Q92797)
thermal stability z-score (lipoamide; [1]): 0.324 | thermal stability z-score (lipoamide; arsenate co-treatment: none): 0.338 | thermal stability z-score (potassium arsenate): -0.75

SYNCRIP (UniProt O60506)
thermal stability z-score (lipoamide; [1]): 0.0582 | thermal stability z-score (lipoamide; arsenate co-treatment: none): 0.179 | thermal stability z-score (potassium arsenate): -0.00709

SYNE2 (UniProt Q8WXH0)
thermal stability z-score (lipoamide; [1]): -0.0307 | thermal stability z-score (lipoamide; arsenate co-treatment: none): 0.18 | thermal stability z-score (potassium arsenate): -0.123

SYNGR2 (UniProt O43760)
thermal stability z-score (lipoamide; [1]): 0.329 | thermal stability z-score (lipoamide; arsenate co-treatment: none): 0.548 | thermal stability z-score (potassium arsenate): -0.0246

SYNJ1 (UniProt O43426)
UniProt O43426, sequence (O43426 whole entry): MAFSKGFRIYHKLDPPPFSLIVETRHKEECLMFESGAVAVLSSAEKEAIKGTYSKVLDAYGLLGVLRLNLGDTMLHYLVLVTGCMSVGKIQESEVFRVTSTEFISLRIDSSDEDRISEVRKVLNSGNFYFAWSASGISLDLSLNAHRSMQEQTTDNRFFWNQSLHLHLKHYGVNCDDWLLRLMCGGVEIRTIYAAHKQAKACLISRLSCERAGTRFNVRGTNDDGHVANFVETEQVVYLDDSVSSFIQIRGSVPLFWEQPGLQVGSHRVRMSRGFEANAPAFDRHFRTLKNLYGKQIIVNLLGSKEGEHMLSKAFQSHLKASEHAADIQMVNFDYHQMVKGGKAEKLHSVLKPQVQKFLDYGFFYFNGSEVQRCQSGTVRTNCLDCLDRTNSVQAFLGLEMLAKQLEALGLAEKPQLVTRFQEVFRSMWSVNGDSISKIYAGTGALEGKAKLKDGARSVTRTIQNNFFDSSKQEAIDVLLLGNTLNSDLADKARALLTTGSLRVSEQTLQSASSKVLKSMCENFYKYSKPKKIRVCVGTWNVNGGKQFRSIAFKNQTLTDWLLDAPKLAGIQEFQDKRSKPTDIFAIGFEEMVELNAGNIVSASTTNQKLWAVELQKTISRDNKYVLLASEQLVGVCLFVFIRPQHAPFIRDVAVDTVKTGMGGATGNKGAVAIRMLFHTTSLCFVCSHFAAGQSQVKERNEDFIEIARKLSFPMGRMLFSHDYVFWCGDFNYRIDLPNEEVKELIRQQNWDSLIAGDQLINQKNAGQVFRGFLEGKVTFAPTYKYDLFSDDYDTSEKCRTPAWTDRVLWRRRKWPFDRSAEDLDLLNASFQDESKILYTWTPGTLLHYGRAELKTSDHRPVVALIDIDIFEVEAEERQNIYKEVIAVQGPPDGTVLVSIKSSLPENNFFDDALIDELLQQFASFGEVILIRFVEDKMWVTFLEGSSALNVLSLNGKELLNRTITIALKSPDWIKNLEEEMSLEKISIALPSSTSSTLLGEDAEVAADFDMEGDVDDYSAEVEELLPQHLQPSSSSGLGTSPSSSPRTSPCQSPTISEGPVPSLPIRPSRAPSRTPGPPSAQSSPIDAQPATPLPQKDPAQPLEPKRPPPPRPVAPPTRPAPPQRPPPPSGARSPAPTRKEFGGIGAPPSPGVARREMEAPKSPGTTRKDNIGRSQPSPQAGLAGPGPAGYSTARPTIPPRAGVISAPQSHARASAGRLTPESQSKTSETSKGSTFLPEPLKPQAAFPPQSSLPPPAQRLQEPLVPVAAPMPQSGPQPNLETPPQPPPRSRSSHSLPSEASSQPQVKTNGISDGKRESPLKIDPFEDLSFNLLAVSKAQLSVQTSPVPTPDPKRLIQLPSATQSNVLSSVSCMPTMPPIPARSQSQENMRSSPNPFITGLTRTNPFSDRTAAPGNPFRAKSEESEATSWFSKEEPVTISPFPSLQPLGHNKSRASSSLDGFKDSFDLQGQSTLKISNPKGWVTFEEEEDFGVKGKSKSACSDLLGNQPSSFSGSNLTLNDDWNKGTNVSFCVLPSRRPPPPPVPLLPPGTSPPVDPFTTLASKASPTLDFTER
thermal stability z-score (lipoamide; [1]): 0.305 | thermal stability z-score (lipoamide; arsenate co-treatment: none): -0.14 | thermal stability z-score (potassium arsenate): -0.277

SYNJ2 (UniProt O15056)
UniProt O15056, sequence (O15056 whole entry): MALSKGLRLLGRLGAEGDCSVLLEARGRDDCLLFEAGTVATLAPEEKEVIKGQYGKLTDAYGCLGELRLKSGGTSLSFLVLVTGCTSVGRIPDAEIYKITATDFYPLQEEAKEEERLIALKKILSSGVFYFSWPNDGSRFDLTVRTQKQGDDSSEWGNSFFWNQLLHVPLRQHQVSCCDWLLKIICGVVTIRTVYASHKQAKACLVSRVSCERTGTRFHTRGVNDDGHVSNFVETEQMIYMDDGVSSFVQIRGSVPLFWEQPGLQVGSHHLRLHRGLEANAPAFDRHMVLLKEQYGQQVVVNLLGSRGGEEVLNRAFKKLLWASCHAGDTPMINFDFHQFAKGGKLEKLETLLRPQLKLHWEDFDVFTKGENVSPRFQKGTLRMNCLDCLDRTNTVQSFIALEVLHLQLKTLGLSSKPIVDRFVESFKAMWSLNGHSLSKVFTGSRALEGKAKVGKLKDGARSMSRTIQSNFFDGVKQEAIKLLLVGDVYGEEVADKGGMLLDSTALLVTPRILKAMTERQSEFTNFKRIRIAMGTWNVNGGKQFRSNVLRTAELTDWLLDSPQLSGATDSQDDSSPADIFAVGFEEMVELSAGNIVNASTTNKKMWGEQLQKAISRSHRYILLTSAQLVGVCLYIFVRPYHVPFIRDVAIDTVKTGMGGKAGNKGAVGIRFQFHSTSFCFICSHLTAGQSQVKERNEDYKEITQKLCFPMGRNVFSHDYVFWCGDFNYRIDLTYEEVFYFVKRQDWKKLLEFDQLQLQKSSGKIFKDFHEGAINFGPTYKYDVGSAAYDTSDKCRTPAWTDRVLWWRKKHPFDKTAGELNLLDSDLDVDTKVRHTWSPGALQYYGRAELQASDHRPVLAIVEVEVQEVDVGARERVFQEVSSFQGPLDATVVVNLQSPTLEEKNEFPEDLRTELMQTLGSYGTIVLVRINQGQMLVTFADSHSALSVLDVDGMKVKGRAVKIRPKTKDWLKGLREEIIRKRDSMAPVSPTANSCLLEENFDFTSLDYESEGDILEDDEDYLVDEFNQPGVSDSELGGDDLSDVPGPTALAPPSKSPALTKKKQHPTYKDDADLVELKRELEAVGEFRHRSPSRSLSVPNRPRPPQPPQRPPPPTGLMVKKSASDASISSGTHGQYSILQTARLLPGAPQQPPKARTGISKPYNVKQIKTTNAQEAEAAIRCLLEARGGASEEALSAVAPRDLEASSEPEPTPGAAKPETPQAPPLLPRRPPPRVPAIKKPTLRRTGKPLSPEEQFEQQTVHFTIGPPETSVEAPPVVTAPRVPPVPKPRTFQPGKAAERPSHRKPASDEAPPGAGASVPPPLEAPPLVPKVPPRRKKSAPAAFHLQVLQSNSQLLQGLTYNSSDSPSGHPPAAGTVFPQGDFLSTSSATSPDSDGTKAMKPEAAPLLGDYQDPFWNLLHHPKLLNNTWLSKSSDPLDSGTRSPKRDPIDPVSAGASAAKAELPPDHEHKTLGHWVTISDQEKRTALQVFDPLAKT
thermal stability z-score (lipoamide; [1]): 0.0806 | thermal stability z-score (lipoamide; arsenate co-treatment: none): 0.0587 | thermal stability z-score (potassium arsenate): -0.0134

SYNJ2BP (UniProt P57105)
thermal stability z-score (lipoamide; [1]): 0.988 | thermal stability z-score (lipoamide; arsenate co-treatment: none): 0.247 | thermal stability z-score (potassium arsenate): 0.518

SYNRG (UniProt Q9UMZ2)
thermal stability z-score (lipoamide; [1]): -0.398 | thermal stability z-score (lipoamide; arsenate co-treatment: none): -0.18 | thermal stability z-score (potassium arsenate): 0.478

SYPL1 (UniProt Q16563)
thermal stability z-score (lipoamide; [1]): 0.951 | thermal stability z-score (lipoamide; arsenate co-treatment: none): -0.0774 | thermal stability z-score (potassium arsenate): 0.425

SYVN1 (UniProt Q86TM6)
thermal stability z-score (lipoamide; [1]): -2 | thermal stability z-score (lipoamide; arsenate co-treatment: none): -2.05 | thermal stability z-score (potassium arsenate): -0.421

SZRD1 (UniProt Q7Z422)
thermal stability z-score (lipoamide; [1]): 0.289 | thermal stability z-score (lipoamide; arsenate co-treatment: none): 0.399 | thermal stability z-score (potassium arsenate): -0.0744

TAB1 (UniProt Q15750)
thermal stability z-score (lipoamide; [1]): -0.188 | thermal stability z-score (lipoamide; arsenate co-treatment: none): -0.291 | thermal stability z-score (potassium arsenate): -0.294

TAB2 (UniProt Q9NYJ8)
thermal stability z-score (lipoamide; [1]): 0.0348 | thermal stability z-score (lipoamide; arsenate co-treatment: none): -0.0384 | thermal stability z-score (potassium arsenate): -0.292

TACC1 (UniProt O75410)
UniProt O75410, sequence (O75410 whole entry): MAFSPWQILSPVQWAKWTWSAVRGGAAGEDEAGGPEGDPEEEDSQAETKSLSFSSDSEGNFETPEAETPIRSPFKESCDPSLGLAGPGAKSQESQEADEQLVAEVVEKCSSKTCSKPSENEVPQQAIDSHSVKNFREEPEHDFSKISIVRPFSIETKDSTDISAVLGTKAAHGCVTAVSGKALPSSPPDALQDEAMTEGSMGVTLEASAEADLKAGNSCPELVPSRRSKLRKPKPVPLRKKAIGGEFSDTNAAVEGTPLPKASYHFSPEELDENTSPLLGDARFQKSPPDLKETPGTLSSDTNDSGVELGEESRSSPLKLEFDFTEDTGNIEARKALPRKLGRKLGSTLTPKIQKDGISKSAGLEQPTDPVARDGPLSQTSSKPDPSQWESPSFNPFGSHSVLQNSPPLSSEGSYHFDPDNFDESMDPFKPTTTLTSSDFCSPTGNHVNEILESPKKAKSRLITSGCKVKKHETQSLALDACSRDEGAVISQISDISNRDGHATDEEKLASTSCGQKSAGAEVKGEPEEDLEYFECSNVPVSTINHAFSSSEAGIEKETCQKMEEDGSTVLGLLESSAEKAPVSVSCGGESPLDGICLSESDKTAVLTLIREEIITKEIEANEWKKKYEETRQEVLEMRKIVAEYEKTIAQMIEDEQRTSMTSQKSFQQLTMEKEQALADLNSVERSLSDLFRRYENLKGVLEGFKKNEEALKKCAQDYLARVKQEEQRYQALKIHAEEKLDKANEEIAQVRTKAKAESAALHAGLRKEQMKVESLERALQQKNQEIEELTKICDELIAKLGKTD
thermal stability z-score (lipoamide; [1]): 0.293 | thermal stability z-score (lipoamide; arsenate co-treatment: none): 0.0761 | thermal stability z-score (potassium arsenate): 0.526

TACC2 (UniProt O95359)
thermal stability z-score (lipoamide; [1]): 0.243 | thermal stability z-score (lipoamide; arsenate co-treatment: none): 0.134 | thermal stability z-score (potassium arsenate): 0.409

TACC3 (UniProt Q9Y6A5)
thermal stability z-score (lipoamide; [1]): -0.148 | thermal stability z-score (lipoamide; arsenate co-treatment: none): -0.162 | thermal stability z-score (potassium arsenate): 0.662

TACO1 (UniProt Q9BSH4)
thermal stability z-score (lipoamide; [1]): 0.0383 | thermal stability z-score (lipoamide; arsenate co-treatment: none): -0.0229 | thermal stability z-score (potassium arsenate): -0.113

TADA3 (UniProt O75528)
thermal stability z-score (lipoamide; [1]): 0.0748 | thermal stability z-score (lipoamide; arsenate co-treatment: none): 0.099 | thermal stability z-score (potassium arsenate): 0.199

TAF2 (UniProt Q6P1X5)
thermal stability z-score (lipoamide; [1]): -0.03 | thermal stability z-score (lipoamide; arsenate co-treatment: none): -0.0592 | thermal stability z-score (potassium arsenate): -0.179

TAF6 (UniProt P49848)
thermal stability z-score (lipoamide; [1]): -0.0822 | thermal stability z-score (lipoamide; arsenate co-treatment: none): -0.089 | thermal stability z-score (potassium arsenate): 0.318

TAF7 (UniProt Q15545)
thermal stability z-score (lipoamide; [1]): -0.3 | thermal stability z-score (lipoamide; arsenate co-treatment: none): -0.347 | thermal stability z-score (potassium arsenate): 0.641

TAF15 (UniProt Q92804)
thermal stability z-score (lipoamide; [1]): 2.08 | thermal stability z-score (lipoamide; arsenate co-treatment: none): 1.21 | thermal stability z-score (potassium arsenate): 1.34

TAGLN2 (UniProt P37802)
thermal stability z-score (lipoamide; [1]): 0.511 | thermal stability z-score (lipoamide; arsenate co-treatment: none): 0.94 | thermal stability z-score (potassium arsenate): -0.184

TAGLN (UniProt Q01995)
thermal stability z-score (lipoamide; [1]): -0.0305 | thermal stability z-score (lipoamide; arsenate co-treatment: none): 1.13 | thermal stability z-score (potassium arsenate): -1.55

TALDO1 (UniProt P37837)
UniProt P37837, sequence (P37837 whole entry): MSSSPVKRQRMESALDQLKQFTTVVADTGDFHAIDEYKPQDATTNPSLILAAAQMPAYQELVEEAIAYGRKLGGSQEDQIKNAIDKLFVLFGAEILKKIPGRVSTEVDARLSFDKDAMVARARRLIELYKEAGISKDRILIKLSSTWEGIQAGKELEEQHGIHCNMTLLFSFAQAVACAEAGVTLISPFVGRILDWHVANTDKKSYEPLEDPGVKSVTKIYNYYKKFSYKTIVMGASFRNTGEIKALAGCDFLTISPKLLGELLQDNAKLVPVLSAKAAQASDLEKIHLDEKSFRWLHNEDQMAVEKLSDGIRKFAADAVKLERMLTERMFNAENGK
thermal stability z-score (lipoamide; [1]): 0.471 | thermal stability z-score (lipoamide; arsenate co-treatment: none): 0.557 | thermal stability z-score (potassium arsenate): 0.839

TAMM41 (UniProt Q96BW9)
UniProt Q96BW9, sequence (Q96BW9 whole entry): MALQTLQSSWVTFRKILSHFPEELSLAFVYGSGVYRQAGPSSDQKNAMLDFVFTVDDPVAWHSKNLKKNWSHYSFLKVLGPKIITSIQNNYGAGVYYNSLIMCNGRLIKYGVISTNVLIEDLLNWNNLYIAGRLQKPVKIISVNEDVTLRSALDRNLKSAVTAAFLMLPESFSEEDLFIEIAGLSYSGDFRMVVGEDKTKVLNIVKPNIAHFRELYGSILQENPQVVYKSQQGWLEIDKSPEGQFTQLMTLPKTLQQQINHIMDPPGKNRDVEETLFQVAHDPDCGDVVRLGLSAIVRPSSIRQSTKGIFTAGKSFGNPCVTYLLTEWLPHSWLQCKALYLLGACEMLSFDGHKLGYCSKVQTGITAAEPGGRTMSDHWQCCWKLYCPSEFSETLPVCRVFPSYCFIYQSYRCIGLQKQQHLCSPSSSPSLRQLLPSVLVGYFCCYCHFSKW
thermal stability z-score (lipoamide; [1]): -0.232 | thermal stability z-score (lipoamide; arsenate co-treatment: none): 0.102 | thermal stability z-score (potassium arsenate): 0.161

TANC1 (UniProt Q9C0D5)
thermal stability z-score (lipoamide; [1]): 0.142 | thermal stability z-score (lipoamide; arsenate co-treatment: none): 1.34 | thermal stability z-score (potassium arsenate): 1.14

TANC2 (UniProt Q9HCD6)
thermal stability z-score (lipoamide; [1]): -0.0889 | thermal stability z-score (lipoamide; arsenate co-treatment: none): -0.116 | thermal stability z-score (potassium arsenate): -0.0159

TANGO6 (UniProt Q9C0B7)
thermal stability z-score (lipoamide; [1]): -0.908 | thermal stability z-score (lipoamide; arsenate co-treatment: none): -0.59 | thermal stability z-score (potassium arsenate): 0.475
